Results: patent publication US12077503B2, “Substituted cyclic amides and their use as herbicides” (FMC CORPORATION, priority 2015, dated 2024)

How the values were obtained:
Assay type in all cases: in vivo
Kochia (Kochia scoparia) [1] = assay: Test A preemergence; details: Bassia scoparia, pre-emergence, 240 h, Preemergence
Summary of the method: (§1)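 Preemergence soil spray on seeded pots or post-emergence spray on 1–2 leaf plants, in loam–sand blend. Greenhouse ~10 d. Visual rating 0–100 against untreated plants.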

[2] = system: barnyardgrass (Echinochloa crus-galli); assay: Test A preemergence; details: Echinochloa crus-galli, pre-emergence, 240 h, Preemergence
Summary of the method: as §1

[3] = system: giant foxtail (Setaria faberii); assay: Test A preemergence; details: Setaria faberi, pre-emergence, 240 h, Preemergence
Summary of the method: as §1

[4] = system: pigweed (Amaranthus retroflexus); assay: Test A preemergence; details: Amaranthus retroflexus, pre-emergence, 240 h, Preemergence
[5] = system: ragweed (common ragweed, Ambrosia elatior); assay: Test A preemergence; details: Ambrosia artemisiifolia, pre-emergence, 240 h, Preemergence
Summary of the method: as §1

[6] = system: ryegrass, Italian (Italian ryegrass, Lolium multiflorum); assay: Test A preemergence; details: Lolium multiflorum, pre-emergence, 240 h, Preemergence
Summary of the method: as §1

[7] = system: Galium (catchweed bedstraw, Galium aparine); assay: Test A postemergence; details: Galium, post-emergence, 240 h, Postemergence
Summary of the method: as §1

Kochia (Kochia scoparia) [8] = assay: Test A postemergence; details: Bassia scoparia, post-emergence, 240 h, Postemergence
Summary of the method: as §1

[9] = system: barnyardgrass (Echinochloa crus-galli); assay: Test A postemergence; details: Echinochloa crus-galli, post-emergence, 240 h, Postemergence
Summary of the method: as §1

[10] = system: blackgrass (Alopecurus myosuroides); assay: Test A postemergence; details: Alopecurus myosuroides, post-emergence, 240 h, Postemergence
Summary of the method: as §1

corn (Zea mays) = assay: Test A postemergence; details: Zea mays, post-emergence, 240 h, Postemergence
Summary of the method: as §1

[11] = system: giant foxtail (Setaria faberii); assay: Test A postemergence; details: Setaria faberi, post-emergence, 240 h, Postemergence
Summary of the method: as §1

[12] = system: pigweed (Amaranthus retroflexus); assay: Test A postemergence; details: Amaranthus retroflexus, post-emergence, 240 h, Postemergence
Summary of the method: as §1

[13] = system: ragweed (common ragweed, Ambrosia elatior); assay: Test A postemergence; details: Ambrosia artemisiifolia, post-emergence, 240 h, Postemergence
Summary of the method: as §1

[14] = system: ryegrass, Italian (Italian ryegrass, Lolium multiflorum); assay: Test A postemergence; details: Lolium multiflorum, post-emergence, 240 h, Postemergence
Summary of the method: as §1

[15] = system: wheat (Triticum aestivum); assay: Test A postemergence; details: Triticum aestivum, post-emergence, 240 h, Postemergence
Summary of the method: as §1

[16] = system: barnyardgrass (Echinochloa crus-galli); assay: Test B flooded paddy test; details: Echinochloa crus-galli, 360 h, Flood, 250 g ai/ha; visually evaluated after 13 to 15 d; read-out: Plant response rating, Barnyardgrass (0 to 100 scale where 0 is no effect and 100 is complete control)
Summary of the method: (§2)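 Percent control, visually estimated after 13–15 d in the greenhouse on a 0–100 basis, compares treated pots with untreated ones; compound was put into paddy water 3 cm above the soil when plants had two leaves.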

[17] = system: ducksalad (Heteranthera limosa); assay: Test B flooded paddy test; details: Heteranthera limosa, 360 h, Flood, 250 g ai/ha; visually evaluated after 13 to 15 d; read-out: Plant response rating, Ducksalad (0 to 100 scale where 0 is no effect and 100 is complete control)
Summary of the method: as §2

rice (Oryra sativa) = assay: Test B flooded paddy test; details: Oryza sativa, 360 h, Flood, 250 g ai/ha; visually evaluated after 13 to 15 d; read-out: Plant response rating, Rice (0 to 100 scale where 0 is no effect and 100 is complete control)
Summary of the method: as §2

[18] = system: sedge, umbrella (small-flower umbrella sedge, Cyperus difformis); assay: Test B flooded paddy test; details: Cyperus difformis, 360 h, Flood, 250 g ai/ha; visually evaluated after 13 to 15 d; read-out: Plant response rating, Sedge, Umbrella (0 to 100 scale where 0 is no effect and 100 is complete control)
Summary of the method: as §2

Work on `CN1C[C@H](c2cccc(C(F)(F)F)c2)[C@@H](C(=O)Nc2cccnc2F)C1=O` [Compound 1397] yielded a pest or weed control at 31 g/ha (Kochia (Kochia scoparia) [1]; 31 g ai/ha, 0 to 100 scale where 0 is no effect and 100 is complete control, read-out: Kochia plant response rating) of 0%, a pest or weed control at 125 g/ha (Kochia (Kochia scoparia) [1]; 125 g ai/ha, 0 to 100 scale (0 no effect, 100 complete control), read-out: Plant response rating, Kochia) of 60% and a pest or weed control at 31 g/ha ([2]; 31 g ai/ha, 0 to 100 scale where 0 is no effect and 100 is complete control, read-out: Barnyardgrass plant response rating) of 100%. The pest or weed control at 125 g/ha ([2]; 125 g ai/ha, 0 to 100 scale (0 no effect, 100 complete control), read-out: Plant response rating, Barnyardgrass) was 100%, the pest or weed control at 31 g/ha ([3]; 31 g ai/ha, 0 to 100 scale where 0 is no effect and 100 is complete control, read-out: Foxtail, Giant plant response rating) was 100% and the pest or weed control at 125 g/ha ([3]; 125 g ai/ha, 0 to 100 scale (0 no effect, 100 complete control), read-out: Plant response rating, Foxtail, Giant) was 100%. For the same molecule, the pest or weed control at 31 g/ha ([4]; 31 g ai/ha, 0 to 100 scale where 0 is no effect and 100 is complete control, read-out: Pigweed plant response rating) was 0%, the pest or weed control at 125 g/ha ([4]; 125 g ai/ha, 0 to 100 scale (0 no effect, 100 complete control), read-out: Plant response rating, Pigweed) was 0% and the pest or weed control at 31 g/ha ([5]; 31 g ai/ha, 0 to 100 scale where 0 is no effect and 100 is complete control, read-out: Ragweed plant response rating) was 0%. For the same molecule, the pest or weed control at 125 g/ha ([5]; 125 g ai/ha, 0 to 100 scale (0 no effect, 100 complete control), read-out: Plant response rating, Ragweed) was 0%, the pest or weed control at 31 g/ha ([6]; 31 g ai/ha, 0 to 100 scale where 0 is no effect and 100 is complete control, read-out: Ryegrass, Italian plant response rating) was 50% and the pest or weed control at 125 g/ha ([6]; 125 g ai/ha, 0 to 100 scale (0 no effect, 100 complete control), read-out: Plant response rating, Ryegrass, Italian) was 70%. It also gave a pest or weed control at 31 g/ha ([7]; 31 g ai/ha, 0 is no effect, 100 is complete control, read-out: Galium plant response rating (0 to 100 scale)) of 20%, a pest or weed control at 125 g/ha ([7]; 125 g ai/ha, visual injury after approx. 10 d, 0 to 100 scale, 0 no effect, 100 complete control, read-out: Plant response rating, Galium) of 60% and a pest or weed control at 31 g/ha (Kochia (Kochia scoparia) [8]; 31 g ai/ha, 0 is no effect, 100 is complete control, read-out: Kochia plant response rating (0 to 100 scale)) of 0%. For the same molecule, the pest or weed control at 125 g/ha (Kochia (Kochia scoparia) [8]; 125 g ai/ha, visual injury after approx. 10 d, 0 to 100 scale, 0 no effect, 100 complete control, read-out: Plant response rating, Kochia) was 0%, the pest or weed control at 31 g/ha ([9]; 31 g ai/ha, 0 is no effect, 100 is complete control, read-out: Barnyardgrass plant response rating (0 to 100 scale)) was 90% and the pest or weed control at 125 g/ha ([9]; 125 g ai/ha, visual injury after approx. 10 d, 0 to 100 scale, 0 no effect, 100 complete control, read-out: Plant response rating, Barnyardgrass) was 90%. The pest or weed control at 31 g/ha ([10]; 31 g ai/ha, 0 is no effect, 100 is complete control, read-out: Blackgrass plant response rating (0 to 100 scale)) was 40%, the pest or weed control at 125 g/ha ([10]; 125 g ai/ha, visual injury after approx. 10 d, 0 to 100 scale, 0 no effect, 100 complete control, read-out: Plant response rating, Blackgrass) was 70% and the plant injury at 31 g/ha (corn (Zea mays); 31 g ai/ha, 0 is no effect, 100 is complete control, read-out: Corn plant response rating (0 to 100 scale)) was 50%. For the same molecule, the Corn plant response rating (crop injury, 0 = no effect, 100 = complete kill) at 125 g/ha (corn (Zea mays); 125 g ai/ha, visual injury after approx. 10 d, 0 to 100 scale, 0 no effect, 100 complete control) was 90%, the pest or weed control at 31 g/ha ([11]; 31 g ai/ha, 0 is no effect, 100 is complete control, read-out: Foxtail, Giant plant response rating (0 to 100 scale)) was 80% and the pest or weed control at 125 g/ha ([11]; 125 g ai/ha, visual injury after approx. 10 d, 0 to 100 scale, 0 no effect, 100 complete control, read-out: Plant response rating, Foxtail, Giant) was 90%. It also gave a pest or weed control at 31 g/ha ([12]; 31 g ai/ha, 0 is no effect, 100 is complete control, read-out: Pigweed plant response rating (0 to 100 scale)) of 0%, a pest or weed control at 125 g/ha ([12]; 125 g ai/ha, visual injury after approx. 10 d, 0 to 100 scale, 0 no effect, 100 complete control, read-out: Plant response rating, Pigweed) of 0% and a pest or weed control at 31 g/ha ([13]; 31 g ai/ha, 0 is no effect, 100 is complete control, read-out: Ragweed plant response rating (0 to 100 scale)) of 0%. The pest or weed control at 125 g/ha ([13]; 125 g ai/ha, visual injury after approx. 10 d, 0 to 100 scale, 0 no effect, 100 complete control, read-out: Plant response rating, Ragweed) was 0%, the pest or weed control at 31 g/ha ([14]; 31 g ai/ha, 0 is no effect, 100 is complete control, read-out: Ryegrass, Italian plant response rating (0 to 100 scale)) was 50% and the pest or weed control at 125 g/ha ([14]; 125 g ai/ha, visual injury after approx. 10 d, 0 to 100 scale, 0 no effect, 100 complete control, read-out: Plant response rating, Ryegrass, Italian) was 40%. For the same molecule, the plant injury at 31 g/ha ([15]; 31 g ai/ha, 0 is no effect, 100 is complete control, read-out: Wheat plant response rating (0 to 100 scale)) was 40%, the plant injury at 125 g/ha ([15]; 125 g ai/ha, visual injury after approx. 10 d, 0 to 100 scale, 0 no effect, 100 complete control, read-out: Plant response rating, Wheat) was 70% and the pest or weed control at 250 g/ha [16] was 75%. It also gave a pest or weed control at 250 g/ha [17] of 100%, a pest or weed control at 250 g/ha (rice (Oryra sativa)) of 0% and a pest or weed control at 250 g/ha [18] of 0%.
